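Briefly, cells in 96-well plates were exposed to five compound concentrations for 48 h, and endpoints were estimated by linear interpolation. Abbreviation: GI50, concentration required for 50% inhibition of growth.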 Activity calls are given as the source filed them. No stated cut-off is given here; in the data, active = GI50 up to about 1.1 µM and inactive = higher.
Experiments:
Assay in all cases: NCI anticancer screen, dose series, 48 h
[1] = system: SN12C
[2] = system: SF-539
[3] = system: RPMI-8226
[4] = system: UO-31
[5] = system: SF-268
[6] = system: NCI-H460
[7] = system: SF-295
[8] = system: OVCAR-4
[9] = system: K562
[10] = system: A549
[11] = system: 786-0
[12] = system: Malme-3M
[13] = system: KM12
[14] = system: UACC-62
[15] = system: EKVX
[16] = system: SNB-19
[17] = system: HCT-116

SMILES | GI50 [1] | GI50 [2] | GI50 [3] | GI50 [4] | GI50 [5] | GI50 [6] | GI50 [7] | GI50 [8] | GI50 [9] | GI50 [10] | GI50 [11] | GI50 [12] | GI50 [13] | GI50 [14] | GI50 [15] | GI50 [16] | GI50 [17]
CC(C)(C)C(=O)ON1N=NC2C3CC(OCc4ccccc4)(OCc4ccccc4)C(O3)C21 (configuration not stated) | 19.3 µM (inactive) | 16.3 µM (inactive) | 7.38 µM (inactive) | 22.4 µM (inactive) | 29.1 µM (inactive) | 24 µM (inactive) | 22.1 µM (inactive) | 22.6 µM (inactive) | 11.7 µM (inactive) | 32.7 µM (inactive) | 18.5 µM (inactive) | 16.3 µM (inactive) | 23.6 µM (inactive) | 18.5 µM (inactive) |  |  | 
CCS[C@H]1NC(=O)C1[C@H](C)O[Si](C)(C)C(C)(C)C (some centres not stated) | > 100 µM (inactive) | > 100 µM (inactive) | 31.6 µM (inactive) |  | > 100 µM (inactive) | > 100 µM (inactive) | > 100 µM (inactive) | > 100 µM (inactive) | 34.3 µM (inactive) | 81.3 µM (inactive) | > 100 µM (inactive) | > 100 µM (inactive) | > 100 µM (inactive) | > 100 µM (inactive) | > 100 µM (inactive) | > 100 µM (inactive) | 86.1 µM (inactive)
C1CCC(N=C2N(C3CCCCC3)C(=NC3CCCCC3)N2C2CCCCC2)CC1 | > 100 µM (inactive) |  | > 100 µM (inactive) | > 100 µM (inactive) | > 100 µM (inactive) | > 100 µM (inactive) | > 100 µM (inactive) | > 100 µM (inactive) | > 100 µM (inactive) | > 100 µM (inactive) | > 100 µM (inactive) | > 100 µM (inactive) | > 100 µM (inactive) | > 100 µM (inactive) | > 100 µM (inactive) | > 100 µM (inactive) | > 100 µM (inactive)
COc1cc2cnc3c4ccccc4ccc3c2cc1OC | > 100 µM (inactive) |  | > 100 µM (inactive) | > 100 µM (inactive) | > 100 µM (inactive) | > 100 µM (inactive) | > 100 µM (inactive) | > 100 µM (inactive) | > 100 µM (inactive) | > 100 µM (inactive) | > 100 µM (inactive) | > 100 µM (inactive) | > 100 µM (inactive) | > 100 µM (inactive) | 6.73 µM (inactive) | > 100 µM (inactive) | 
CN(C)CCNC(=O)c1cccc2nc3ccc4cccnc4c3nc12 | 0.172 µM (active) | 0.19 µM (active) |  | 0.205 µM (active) | 0.298 µM (active) | 0.0565 µM (active) | 0.644 µM (active) | 0.468 µM (active) | 0.346 µM (active) | 0.284 µM (active) | 0.454 µM (active) |  | 0.564 µM (active) | 0.457 µM (active) | 0.507 µM (active) | 0.362 µM (active) | 0.0467 µM (active)
COC(=O)CC1N/C(=N\C#N)N(CCc2c[nH]c3ccccc23)C1=O (configuration not stated) | > 100 µM (inactive) | > 100 µM (inactive) | > 100 µM (inactive) | 75.9 µM (inactive) | > 100 µM (inactive) | > 100 µM (inactive) | > 100 µM (inactive) | > 100 µM (inactive) | > 100 µM (inactive) | > 100 µM (inactive) | > 100 µM (inactive) |  | > 100 µM (inactive) | > 100 µM (inactive) | 83 µM (inactive) | > 100 µM (inactive) | > 100 µM (inactive)
O=C(Nc1c(O)[nH]c(=S)[nH]c1=O)c1ccc2ccccc2n1 | > 100 µM (inactive) | > 100 µM (inactive) | > 100 µM (inactive) | > 100 µM (inactive) | > 100 µM (inactive) | > 100 µM (inactive) | > 100 µM (inactive) | > 100 µM (inactive) | > 100 µM (inactive) | > 100 µM (inactive) | > 100 µM (inactive) | > 100 µM (inactive) |  | > 100 µM (inactive) |  | > 100 µM (inactive) | > 100 µM (inactive)
COc1ccc(/C=C/C(=O)C(C)C)cc1 | 54.3 µM (inactive) | 46.2 µM (inactive) |  | 80.2 µM (inactive) | 42.3 µM (inactive) | 26.8 µM (inactive) | 31.6 µM (inactive) | 47.9 µM (inactive) | 32.8 µM (inactive) | 69.2 µM (inactive) | 71.3 µM (inactive) | 42 µM (inactive) | 33.6 µM (inactive) | 45 µM (inactive) | 45.3 µM (inactive) | 46.7 µM (inactive) | 49.8 µM (inactive)
Nc1ncnc2c1ncn2C1CC(OC2CCCCO2)C(CO)O1 (configuration not stated) | > 100 µM (inactive) | > 100 µM (inactive) | > 100 µM (inactive) | > 100 µM (inactive) | > 100 µM (inactive) | > 100 µM (inactive) | > 100 µM (inactive) | > 100 µM (inactive) | > 100 µM (inactive) | > 100 µM (inactive) | > 100 µM (inactive) | > 100 µM (inactive) | > 100 µM (inactive) |  | 67.5 µM (inactive) | > 100 µM (inactive) | > 100 µM (inactive)
CCOc1cccc2c1N[S@@](=O)S2 | > 100 µM (inactive) | > 100 µM (inactive) | 98.2 µM (inactive) | 98.4 µM (inactive) | > 100 µM (inactive) |  | 80.4 µM (inactive) |  | 53.3 µM (inactive) | > 100 µM (inactive) | > 100 µM (inactive) | > 100 µM (inactive) | > 100 µM (inactive) | 49.2 µM (inactive) | > 100 µM (inactive) | 59.2 µM (inactive) | > 100 µM (inactive)
Cc1c2cc[n+](COC(=O)c3ccccc3)cc2c(C)c2c1[nH]c1ccccc12 | 0.533 µM (active) | 0.416 µM (active) | 0.569 µM (active) | 2.03 µM (inactive) | 0.571 µM (active) |  | 0.491 µM (active) | 0.587 µM (active) | 0.388 µM (active) | 0.299 µM (active) | 0.778 µM (active) | 1.46 µM (inactive) | 0.533 µM (active) | 1.5 µM (inactive) |  | 0.778 µM (active) | 0.298 µM (active)
O=c1cc(-c2ccccc2)[nH]c2cc(F)cc(F)c12 | 52.5 µM (inactive) | 24.4 µM (inactive) | 30.1 µM (inactive) | 37 µM (inactive) | > 100 µM (inactive) | 28.3 µM (inactive) | 25.1 µM (inactive) | > 100 µM (inactive) | 11.9 µM (inactive) | 20.8 µM (inactive) | 52.4 µM (inactive) | 16.7 µM (inactive) | 4.56 µM (inactive) | 16.1 µM (inactive) |  |  | 36.2 µM (inactive)
CN[C@@H](C)[C@H](N)c1ccccc1 | > 100 µM (inactive) | > 100 µM (inactive) | > 100 µM (inactive) | > 100 µM (inactive) |  | > 100 µM (inactive) | > 100 µM (inactive) |  | > 100 µM (inactive) | > 100 µM (inactive) | > 100 µM (inactive) |  | > 100 µM (inactive) | > 100 µM (inactive) | > 100 µM (inactive) |  | > 100 µM (inactive)
